Results reported in patent publication US6514971B1, “Cinnoline derivatives and use as medicine” (Zeneca Limited, priority 1996, dated 2003).

Experiments:
[1] = J. Karnatak Univ., Sci. (1984), 29, 82-6; cited from earlier work
[2] = target: T1, epidermal growth factor (EGF) receptor tyrosine kinase (Homo sapiens, UniProt P00533); assay: In vitro receptor tyrosine kinase inhibition test (EGF receptor); assay type: biochemical
T1 construct: made in house; host or cells: insect cells (baculovirus, as for Flt)
T1 sequence (P00533 669-1210 limits assumed): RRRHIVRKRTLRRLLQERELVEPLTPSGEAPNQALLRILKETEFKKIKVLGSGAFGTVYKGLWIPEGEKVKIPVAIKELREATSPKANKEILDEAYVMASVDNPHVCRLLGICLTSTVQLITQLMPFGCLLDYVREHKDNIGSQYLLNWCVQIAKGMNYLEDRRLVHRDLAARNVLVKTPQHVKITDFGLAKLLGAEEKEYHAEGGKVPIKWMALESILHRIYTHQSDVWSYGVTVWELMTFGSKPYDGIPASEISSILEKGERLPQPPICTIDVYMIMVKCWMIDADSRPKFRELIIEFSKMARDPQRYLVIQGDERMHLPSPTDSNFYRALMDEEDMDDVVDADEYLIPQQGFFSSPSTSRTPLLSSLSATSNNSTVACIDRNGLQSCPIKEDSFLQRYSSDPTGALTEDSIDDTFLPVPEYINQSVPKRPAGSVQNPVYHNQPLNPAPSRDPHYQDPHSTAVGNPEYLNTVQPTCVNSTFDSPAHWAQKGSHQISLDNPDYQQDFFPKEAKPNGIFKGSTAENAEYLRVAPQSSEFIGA
Description: (§1) (a) In Vitro Receptor Tyrosine Kinase Inhibition Test
This assay determines the ability of a test compound to inhibit tyrosine kinase activity. DNA encoding VEGF or epidermal growth factor (EGF) receptor cytoplasmic domains may be obtained by total gene synthesis (Edwards M, International Biotechnology Lab 5(3), 19-25, 1987) or by cloning. These may then be expressed in a suitable expression system to obtain polypeptide with tyrosine kinase activity. […] In the case of the VEGF receptor Flt (Genbank accession number X51602), a 1.7 kb DNA fragment encoding most of the cytoplasmic domain, commencing with methionine 783 and including the termination codon, described by Shibuya et al (Oncogene, 1990, 5: 519-524), was isolated from cDNA and cloned into a baculovirus transplacement vector (for example pAcYM1 (see The Baculovirus Expression System: A Laboratory Guide, L. A. King and R. D. Possee, Chapman and Hall, 1992) or pAc360 or pBlueBacHis (available from Invitrogen Corporation)). This recombinant construct was co-transfected into insect cells (for example Spodoptera frugiperda 21 (Sf21)) with viral DNA (eg Pharmingen BaculoGold) to prepare recombinant baculovirus. (Details of the methods for the assembly of recombinant DNA molecules and the preparation and use of recombinant baculovirus can be found in standard texts for example Sambrook et al, 1989. Molecular cloning—A Laboratory Manual, 2nd edition, Cold Spring Harbour Laboratory Press and O'Reilly et al, 1992, Baculovirus Expression Vectors—A Laboratory Manual. W. H. Freeman and Co. New York). For other tyrosine kinases for use in assays, cytoplasmic fragments starting from methionine 806 (KDR, Genbank accession number L04947) and methionine 668 (EGF receptor, Genbank accession number X00588) may be cloned and expressed in a similar manner.
For expression of cFlt tyrosine kinase activity, Sf21 cells were infected with plaque-pure cFlt recombinant virus at a multiplicity of infection of 3 and harvested 48 hours later. Harvested cells were washed with ice cold phosphate buffered saline solution (PBS) (10 mM sodium phosphate pH7.4, 138 mM NaCl, 2.7 mM KCl) then resuspended in ice cold HNTG/PMSF (20 mM Hepes pH7.5, 150 mM NaCl, 10% v/v glycerol, 1% v/v Triton X100. 1.5 mM MgCl2, 1 mM ethylene glycol-bis(βaminoethyl ether) N,N,N′,N′-tetraacetic acid (EGTA), 1 mM PMSF (phenylmethylsulphonyl fluoride); the PMSF is added just before use from a freshly-prepared 100 mM solution in methanol) using 1 ml HNTG/PMSF per 10 million cells. The suspension was centrifuged for 10 minutes at 13.000 rpm at 4° C., the supernatant (enzyme stock) was removed and stored in aliquots at −70° C. Each new batch of stock enzyme was titrated in the assay by dilution with enzyme diluent (100 mM Hepes pH 7.4, 0.2 mM Na3VO4, 0.1% v/v Triton X100, 0.2 mM dithiothreitol). For a typical batch, stock enzyme is diluted 1 in 2000 with enzyme diluent and 50 μl of dilute enzyme is used for each assay well.
(§2) A stock of substrate solution was prepared from a random copolymer containing tyrosine, for example Poly (Glu, Ala, Tyr) 6:3:1 (Sigma P3899), stored as 1 mg/ml stock in PBS at −20° C. and diluted 1 in 500 with PBS for plate coating.
(§3) On the day before the assay 100 μl of diluted substrate solution was dispensed into all wells of assay plates (Nunc maxisorp 96-well immunoplates) which were sealed and left overnight at 4° C.
(§4) On the day of the assay the substrate solution was discarded and the assay plate wells were washed once with PBST (PBS containing 0.05% v/v Tween 20) and once with 50 mM Hepes pH7.4.
Test compounds were diluted with 10% dimethylsulphoxide (DMSO) and 25 μl of diluted compound was transferred to wells in the washed assay plates. “Total” control wells contained 10% DMSO instead of compound. Twenty five microliters of 40 mM MnCl2 containing 8 μM adenosine-5′-triphosphate (ATP) was added to all test wells except “blank” control wells which contained MnCl2 without ATP. […]

[3] = target: T2, VEGF receptor tyrosine kinase (Homo sapiens, UniProt P17948); assay: In vitro receptor tyrosine kinase inhibition test (VEGF receptor); assay type: biochemical
T2 construct: encoding most of the cytoplasmic domain, commencing with methionine 783 and including the termination codon; made in house; host or cells: Spodoptera frugiperda Sf21 insect cells (baculovirus); cleared Triton X100 lysate used as enzyme stock
T2 sequence (P17948 781-1338 limits assumed): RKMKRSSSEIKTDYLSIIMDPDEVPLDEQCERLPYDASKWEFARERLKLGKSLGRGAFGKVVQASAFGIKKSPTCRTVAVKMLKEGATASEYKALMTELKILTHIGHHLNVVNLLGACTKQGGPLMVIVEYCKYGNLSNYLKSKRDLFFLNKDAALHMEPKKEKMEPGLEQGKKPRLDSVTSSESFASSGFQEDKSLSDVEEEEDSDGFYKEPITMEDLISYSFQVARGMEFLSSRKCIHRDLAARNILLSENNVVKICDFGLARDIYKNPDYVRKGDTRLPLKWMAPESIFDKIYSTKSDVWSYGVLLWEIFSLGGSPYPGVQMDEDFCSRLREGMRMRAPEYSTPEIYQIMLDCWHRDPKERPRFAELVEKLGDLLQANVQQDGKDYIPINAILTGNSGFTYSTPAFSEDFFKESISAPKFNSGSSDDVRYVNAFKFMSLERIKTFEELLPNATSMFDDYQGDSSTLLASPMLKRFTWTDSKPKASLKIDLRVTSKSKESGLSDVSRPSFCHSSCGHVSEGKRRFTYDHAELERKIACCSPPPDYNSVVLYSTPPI
Description: as §1
This assay determines the ability of a test compound to inhibit tyrosine kinase activity. […] These may then be expressed in a suitable expression system to obtain polypeptide with tyrosine kinase activity. […] This recombinant construct was co-transfected into insect cells (for example Spodoptera frugiperda 21 (Sf21)) with viral DNA (eg Pharmingen BaculoGold) to prepare recombinant baculovirus.
For expression of cFlt tyrosine kinase activity, Sf21 cells were infected with plaque-pure cFlt recombinant virus at a multiplicity of infection of 3 and harvested 48 hours later. […] The suspension was centrifuged for 10 minutes at 13.000 rpm at 4° C., the supernatant (enzyme stock) was removed and stored in aliquots at −70° C. Each new batch of stock enzyme was titrated in the assay by dilution with enzyme diluent (100 mM Hepes pH 7.4, 0.2 mM Na3VO4, 0.1% v/v Triton X100, 0.2 mM dithiothreitol). For a typical batch, stock enzyme is diluted 1 in 2000 with enzyme diluent and 50 μl of dilute enzyme is used for each assay well.
as §2, §3, §4
Test compounds were diluted with 10% dimethylsulphoxide (DMSO) and 25 μl of diluted compound was transferred to wells in the washed assay plates. “Total” control wells contained 10% DMSO instead of compound. Twenty five microliters of 40 mM MnCl2 containing 8 μM adenosine-5′-triphosphate (ATP) was added to all test wells except “blank” control wells which contained MnCl2 without ATP. To start the reactions 50 μl of freshly diluted enzyme was added to each well and the plates were incubated at room temperature for 20 minutes. The liquid was then discarded and the wells were washed twice with PBST. […] Plates were then incubated for 20-60 minutes at room temperature until the optical density value of the “total” control wells, measured at 405 nm using a plate reading spectrophotometer, was approximately 1.0.

Row | Compound | anti-inflammatory and antiarthritic activity [1] | activity against epidermal growth factor (EGF) receptor tyrosine kinase [2] | activity against VEGF receptor tyrosine kinase [3]
1 | COc1cc2nncc(Nc3cccc(Cl)c3)c2cc1OC [4-(3-chloroanilino)-6,7-dimethoxycinnoline] | some anti-inflammatory and antiarthritic activity | – | –
2 | COc1ccc(Nc2cnnc3cc(OC)c(OC)cc23)cc1 [4-(4-methoxyanilino)-6,7-dimethoxycinnoline] | some anti-inflammatory and antiarthritic activity | – | –
3 | COc1cc2c(Nc3cc(O)c(C)cc3F)cnnc2cc1OCCCN1CCOCC1 [Example 15, 4-(2-fluoro-5-hydroxy-4-methylanilino)-6-metboxy-7-(3-morpholinopropoxy)cinnoline] | – | lack of significant activity | good activity
